What was measured:
SG3199 = compound: CC1=CN2[C@@H](C1)C=NC3=CC(=C(C=C3C2=O)OC)OCCCCCOC4=C(C=C5C(=C4)N=C[C@@H]6CC(=CN6C5=O)C)OC [SG3199]; settings: max 0.001 µM
In short: (§1)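 Cancer cell lines in 1536-well plates (7.5 μl DMEM/F12 or RPMI, 10% FBS) were held 24 hours at 37°C and 5% CO2 and then dosed for 72 hours at a final DMSO of typically 0.2%. Viability was taken from CellTiter-Glo 2.0 luminescence, scaled between blank-well and DMSO-well means. Curves were fitted as two-parameter logistic models with a non-linear mixed effects model, from which the single-agent IC50 was taken.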

MK-2206 = compound: NC1(c2ccc(-c3nc4ccn5c(=O)[nH]nc5c4cc3-c3ccccc3)cc2)CCC1 [MK-2206]; settings: max 10 µM
In short: as §1

AZD5991 = compound: Cc1c2c(nn1C)CSCc1cc(n(C)n1)CSc1cc(c3ccccc3c1)OCCCc1c(C(=O)O)n(C)c3c-2c(Cl)ccc13 [AZD5991]; settings: max 1 µM
In short: as §1

AZD7648 = compound: Cc1cc2ncnn2cc1Nc1ncc2c(n1)n(C1CCOCC1)c(=O)n2C [AZD7648]; settings: max 10 µM
In short: as §1

Dasatinib = compound: CC1=C(C(=CC=C1)Cl)NC(=O)C2=CN=C(S2)NC3=CC(=NC(=N3)C)N4CCN(CC4)CCO [Dasatinib]; settings: max 2 µM
In short: as §1

5-Fluorouracil = compound: O=c1[nH]cc(F)c(=O)[nH]1 [5-Fluorouracil]; settings: max 20 µM
In short: as §1

AZD1390 = compound: CC(C)n1c(=O)n(C)c2cnc3cc(F)c(-c4ccc(OCCCN5CCCCC5)nc4)cc3c21 [AZD1390]; settings: max 0.3 µM
In short: as §1

Etoposide = compound: COc1cc([C@@H]2c3cc4c(cc3[C@@H](O[C@@H]3O[C@@H]5CO[C@@H](C)O[C@H]5[C@H](O)[C@H]3O)[C@H]3COC(=O)[C@H]23)OCO4)cc(OC)c1O [Etoposide]; settings: max 10 µM
In short: as §1

AZD5153 = compound: COc1nnc2ccc(N3CCC(c4ccc(OCCN5CCN(C)C(=O)[C@H]5C)cc4)CC3)nn12 [AZD5153]; settings: max 1 µM
In short: as §1

Venetoclax = compound: CC1(C)CCC(CN2CCN(c3ccc(C(=O)NS(=O)(=O)c4ccc(NCC5CCOCC5)c([N+](=O)[O-])c4)c(Oc4cnc5[nH]ccc5c4)c3)CC2)=C(c2ccc(Cl)cc2)C1 [Venetoclax]; settings: max 1 µM
In short: as §1

Paclitaxel = compound: CC(=O)O[C@H]1C(=O)[C@@]2(C)[C@H]([C@H](OC(=O)c3ccccc3)[C@]3(O)C[C@H](OC(=O)[C@H](O)[C@@H](NC(=O)c4ccccc4)c4ccccc4)C(C)=C1C3(C)C)[C@]1(OC(C)=O)CO[C@@H]1C[C@@H]2O [Paclitaxel]; settings: max 3 µM
In short: as §1

Doxorubicin = compound: COc1cccc2c1C(=O)c1c(O)c3c(c(O)c1C2=O)C[C@@](O)(C(=O)CO)C[C@@H]3O[C@H]1C[C@H](N)[C@H](O)[C@H](C)O1 [Doxorubicin]; settings: max 1 µM
In short: as §1

AZD2811 = compound: CCN(CCO)CCCOc1ccc2c(Nc3cc(CC(=O)Nc4cccc(F)c4)[nH]n3)ncnc2c1 [AZD2811]; settings: max 1 µM
In short: as §1

AZD8186 = compound: C[C@@H](Nc1cc(F)cc(F)c1)c1cc(C(=O)N(C)C)cc2c(=O)cc(N3CCOCC3)oc12 [AZD8186]; settings: max 10 µM
In short: as §1

Prexasertib = compound: COc1cccc(OCCCN)c1-c1cc(Nc2cnc(C#N)cn2)n[nH]1 [Prexasertib]; settings: max 1 µM
In short: as §1

AZD6738 = compound: C[C@@H]1COCCN1C2=NC(=NC(=C2)C3(CC3)[S@](=N)(=O)C)C4=C5C=CNC5=NC=C4 [AZD6738]; settings: max 10 µM
In short: as §1

Taselisib = compound: Cc1nc(-c2cn3c(n2)-c2ccc(-c4cnn(C(C)(C)C(N)=O)c4)cc2OCC3)n(C(C)C)n1 [Taselisib]; settings: max 10 µM
In short: as §1

Crizotinib = compound: C[C@@H](Oc1cc(-c2cnn(C3CCNCC3)c2)cnc1N)c1c(Cl)ccc(F)c1Cl [Crizotinib]; settings: max 10 µM
In short: as §1

AZD0156 = compound: CN(C)CCCOc1ccc(-c2ccc3ncc4c(c3c2)n(C2CCOCC2)c(=O)n4C)cn1 [AZD0156]; settings: max 3 µM
In short: as §1

AZD1775 = compound: C=CCn1c(=O)c2cnc(Nc3ccc(N4CCN(C)CC4)cc3)nc2n1-c1cccc(C(C)(C)O)n1 [AZD1775]; settings: max 3 µM
In short: as §1

Selumetinib = compound: Cn1cnc2c(F)c(Nc3ccc(Br)cc3Cl)c(C(=O)NOCCO)cc21 [Selumetinib]; settings: max 10 µM
In short: as §1

Gefitinib = compound: COc1cc2ncnc(Nc3ccc(F)c(Cl)c3)c2cc1OCCCN1CCOCC1 [Gefitinib]; settings: max 10 µM
In short: as §1

[1] = compound: O=C(Nc1ccc2[nH]nc(-c3ccncc3)c2c1)[C@@H]1CCN(CC(=O)N2CCN(c3ccc(-c4ncccn4)cc3)CC2)C1; settings: max 5 µM
In short: as §1

Savolitinib = compound: C[C@@H](c1ccc2nccn2c1)n1nnc2ncc(-c3cnn(C)c3)nc21 [Savolitinib]; settings: max 1 µM
In short: as §1

SRA737 = compound: N#Cc1cnc(Nc2cc(NC[C@H]3CNCCO3)c(C(F)(F)F)cn2)cn1 [SRA737]; settings: max 10 µM
In short: as §1

Olaparib = compound: O=C(c1cc(Cc2n[nH]c(=O)c3ccccc23)ccc1F)N1CCN(C(=O)C2CC2)CC1 [Olaparib]; settings: max 10 µM
In short: as §1

SN-38 = compound: CCc1c2c(nc3ccc(O)cc13)-c1cc3c(c(=O)n1C2)COC(=O)[C@]3(O)CC [SN-38]; settings: max 0.3 µM
In short: as §1

Alisertib = compound: COc1cc(Nc2ncc3c(n2)-c2ccc(Cl)cc2C(c2c(F)cccc2OC)=NC3)ccc1C(=O)O [Alisertib]; settings: max 10 µM
In short: as §1

Gemcitabine = compound: Nc1ccn([C@@H]2O[C@H](CO)[C@@H](O)C2(F)F)c(=O)n1 [Gemcitabine]; settings: max 0.3 µM
In short: as §1

AZD5363 = compound: C1CN(CCC1(C(=O)N[C@@H](CCO)C2=CC=C(C=C2)Cl)N)C3=NC=NC4=C3C=CN4 [AZD5363]; settings: max 10 µM
In short: as §1

Palbociclib = compound: CC(=O)c1c(C)c2cnc(Nc3ccc(N4CCNCC4)cn3)nc2n(C2CCCC2)c1=O [Palbociclib]; settings: max 10 µM
In short: as §1

AZD4320 = compound: CN(CC[C@H](CSC1=CC=CC=C1)NC2=C(C=C(C=C2)S(=O)(=O)NC(=O)C3=CC=C(C=C3)N4CCC(CC4)[C@H](C5=CC=CC=C5C6=CC=C(C=C6)Cl)O)S(=O)(=O)C(F)(F)F)CCO [AZD4320]; settings: max 1 µM
In short: as §1

Lapatinib = compound: CS(=O)(=O)CCNCc1ccc(-c2ccc3ncnc(Nc4ccc(OCc5cccc(F)c5)c(Cl)c4)c3c2)o1 [Lapatinib]; settings: max 10 µM
In short: as §1

Carboplatin = compound: C1CC(C1)(C(=O)[O-])C(=O)[O-].N.N.[Pt+2] [Carboplatin]; settings: max 10 µM
In short: as §1

Trametinib = compound: CC(=O)Nc1cccc(-n2c(=O)n(C3CC3)c(=O)c3c(Nc4ccc(I)cc4F)n(C)c(=O)c(C)c32)c1 [Trametinib]; settings: max 1 µM
In short: as §1

Cell Line	IC50, cell viability 72 h (SG3199) [nM]	IC50, cell viability 72 h (MK-2206) [nM]	IC50, cell viability 72 h (AZD5991) [nM]	IC50, cell viability 72 h (AZD7648) [nM]	IC50, cell viability 72 h (Dasatinib) [nM]	IC50, cell viability 72 h (5-Fluorouracil) [nM]	IC50, cell viability 72 h (AZD1390) [nM]	IC50, cell viability 72 h (Etoposide) [nM]	IC50, cell viability 72 h (AZD5153) [nM]	IC50, cell viability 72 h (Venetoclax) [nM]	IC50, cell viability 72 h (Paclitaxel) [nM]	IC50, cell viability 72 h (Doxorubicin) [nM]	IC50, cell viability 72 h (AZD2811) [nM]	IC50, cell viability 72 h (AZD8186) [nM]	IC50, cell viability 72 h (Prexasertib) [nM]	IC50, cell viability 72 h (AZD6738) [nM]	IC50, cell viability 72 h (Taselisib) [nM]	IC50, cell viability 72 h (Crizotinib) [nM]	IC50, cell viability 72 h (AZD0156) [nM]	IC50, cell viability 72 h (AZD1775) [nM]	IC50, cell viability 72 h (Selumetinib) [nM]	IC50, cell viability 72 h (Gefitinib) [nM]	IC50, cell viability 72 h [1] [nM]	IC50, cell viability 72 h (Savolitinib) [nM]	IC50, cell viability 72 h (SRA737) [nM]	IC50, cell viability 72 h (Olaparib) [nM]	IC50, cell viability 72 h (SN-38) [nM]	IC50, cell viability 72 h (Alisertib) [nM]	IC50, cell viability 72 h (Gemcitabine) [nM]	IC50, cell viability 72 h (AZD5363) [nM]	IC50, cell viability 72 h (Palbociclib) [nM]	IC50, cell viability 72 h (AZD4320) [nM]	IC50, cell viability 72 h (Lapatinib) [nM]	IC50, cell viability 72 h (Carboplatin) [nM]	IC50, cell viability 72 h (Trametinib) [nM]
CCK-81 (Colorectal Carcinoma)	> 1	> 10000	634	> 10000	> 2000	7320	> 300	> 10000	160	> 1000	101	> 1000	> 1000	> 10000	10.7	1570	1180	8320	> 3000	661	9240	997	4810	> 1000	876	> 10000	76.7	> 10000	50.3	> 10000	> 10000	> 1000	484	> 10000	208
COLO-320-HSR (Colorectal Carcinoma)	> 1	> 10000	489	> 10000	> 2000	> 20000	> 300	> 10000	> 1000	> 1000	411	> 1000	> 1000	> 10000	232	7940	> 10000	> 10000	> 3000	459	> 10000	> 10000	> 5000	> 1000	> 10000	> 10000	> 300	> 10000	260	> 10000	> 10000	> 1000	> 10000	> 10000	> 1000
ECC10 (Gastric Carcinoma)	> 1	> 10000	713	> 10000	> 2000	> 20000	> 300	1860	139	230	10.9	131	25.2	> 10000	324	> 10000	> 10000	4920	> 3000	1130	> 10000	> 10000	375	> 1000	> 10000	> 10000	7.73	200	50	> 10000	> 10000	21.8	6710	> 10000	237
IGR-37 (Melanoma)	> 1	> 10000	> 1000	> 10000	> 2000	> 20000	> 300	> 10000	846	> 1000	86.5	746	> 1000	> 10000	12.9	5360	4360	> 10000	> 3000	846	339	> 10000	361	> 1000	3480	> 10000	26.2	> 10000	45.9	> 10000	> 10000	> 1000	> 10000	> 10000	3.42
KARPAS-422 (B-Cell Non-Hodgkin's Lymphoma)	> 1	1070	206	> 10000	1510	> 20000	> 300	3440	144	644	957	634	> 1000	644	17.6	9320	4630	> 10000	> 3000	768	> 10000	> 10000	> 5000	> 1000	> 10000	> 10000	17	> 10000	92.2	3560	3050	230	> 10000	> 10000	> 1000

Reference: the supplement of paper PMC11061612
